Article PMC11625327, “Molecular determinants of neuropeptide-mediated activation mechanisms in tachykinin NK1 and NK2 receptors” (The Journal of Biological Chemistry, 2024)

What was measured:
Assay type in all cases: cell-based
NK1R F264Y M291F [1] = molecular target: T1, NK1R F264Y M291F (Homo sapiens, UniProt P25103, F264Y/M291F); assay: BRET-based cAMP assay (Gs); conditions: COS-7, COS7 cells, CAMYEL BRET sensor, four-parameter fit, mean ± SEM of three independent experiments
T1 construct: host or cells: COS7
Protocol: (§1) COS7 cells were tested monthly for mycoplasma and kept negative. COS7 cells were plated in either clear, white, or white with clear bottom 96-well plates that were coated with poly-D-lysine (Sigma-Aldrich) 30 min prior to cell seeding (20,000 cells/well). The following day plates were transiently transfected using calcium precipitation with 200 ng/well DNA in a culture medium with the addition of 100μM (final concentration) chloroquine. Transfection was stopped 5 h later with the addition of a fresh maintenance medium. Fig. […] The intracellular level of cAMP was monitored in real-time using BRET. This was achieved by implementing a construct consisting of a cAMP binding protein (exchange protein activated by cAMP [EPAC]) which has been flanked by a BRET pair consisting of Rluc and yellow fluorescent protein. This construct is called CAMYEL (cAMP sensor using yellow fluorescent protein-EPAC-Rluc) and enables cAMP production to be sensed as EPAC changes conformation in response to increasing levels of cAMP, ultimately resulting in a loss of BRET signal. […] The BRET signal was calculated as the ratio of emission intensity at 535 nm (citrine) to the emission intensity at 475 nm (luciferase). […] All dose-response curves have been calculated using Prism 10 software (GraphPad Software, www.graphpad.com) nonlinear regression with four parameters. […]

NK1R M291F [2] = molecular target: T2, NK1R M291F (Homo sapiens, UniProt P25103, M291F); assay: BRET-based cAMP assay (Gs); conditions: COS-7, COS7 cells, CAMYEL BRET sensor, four-parameter fit, mean ± SEM of three independent experiments
T2 construct: host or cells: COS7
Protocol: as §1

NK1R F264Y = molecular target: T3, NK1R F264Y (Homo sapiens, UniProt P25103, F264Y); assay: IP3 accumulation assay (Gq); conditions: COS-7, COS7 cells, [3H]inositol, 10 mM LiCl, 150 min 37 °C, mean ± SEM of three independent experiments
T3 construct: host or cells: COS7
Protocol: (§2) COS7 cells were tested monthly for mycoplasma and kept negative. COS7 cells were plated in either clear, white, or white with clear bottom 96-well plates that were coated with poly-D-lysine (Sigma-Aldrich) 30 min prior to cell seeding (20,000 cells/well). The following day plates were transiently transfected using calcium precipitation with 200 ng/well DNA in a culture medium with the addition of 100μM (final concentration) chloroquine. Transfection was stopped 5 h later with the addition of a fresh maintenance medium. Fig. […] COS7 cells seeded in clear 96-well plates were incubated with 0.5 μCi/ml myo [3H]inositol (Perkin Elmer) in 100 μl growth medium overnight following the transfection. The subsequent day cells were washed twice with 200 μl/well HBSS (GIBCO, Life Technologies) and preincubated for 5 min at 37 °C with 100 μl/well HBSS buffer supplemented with 10 mM LiCl. Ligand addition was followed by 150 min incubation at 37 °C. To stop ligand incubation, cells were lysed with 40 μl 10 mM formic acid followed by 30 min incubation on ice. Thirty five microliters of the lysate was transferred to white 96-well plates together with 60 μl of 1:8 diluted YSi SPA scintillation beads (Perkin Elmer). Plates were sealed and vigorously shaken for 15 min, followed by 5 min centrifugation at 1500 rpm. Measurements (scintillation) were recorded on a Microbeta (PerkinElmer) after a 4 h delay and determinations were made in duplicates. All dose-response curves have been calculated using Prism 10 software (GraphPad Software, www.graphpad.com) nonlinear regression with four parameters. All data are shown as mean ± SEM unless stated otherwise and consist of two technical replicates from three biological replicates.

NK1R F264Y M291F [3] = molecular target: T1, NK1R F264Y M291F; assay: IP3 accumulation assay (Gq); conditions: COS-7, COS7 cells, [3H]inositol, 10 mM LiCl, 150 min 37 °C, mean ± SEM of three independent experiments
Protocol: as §2

NK1R M291F [4] = molecular target: T2, NK1R M291F; assay: IP3 accumulation assay (Gq); conditions: COS-7, COS7 cells, [3H]inositol, 10 mM LiCl, 150 min 37 °C, mean ± SEM of three independent experiments
Protocol: as §2

T2 sequence (P25103 whole entry M291F): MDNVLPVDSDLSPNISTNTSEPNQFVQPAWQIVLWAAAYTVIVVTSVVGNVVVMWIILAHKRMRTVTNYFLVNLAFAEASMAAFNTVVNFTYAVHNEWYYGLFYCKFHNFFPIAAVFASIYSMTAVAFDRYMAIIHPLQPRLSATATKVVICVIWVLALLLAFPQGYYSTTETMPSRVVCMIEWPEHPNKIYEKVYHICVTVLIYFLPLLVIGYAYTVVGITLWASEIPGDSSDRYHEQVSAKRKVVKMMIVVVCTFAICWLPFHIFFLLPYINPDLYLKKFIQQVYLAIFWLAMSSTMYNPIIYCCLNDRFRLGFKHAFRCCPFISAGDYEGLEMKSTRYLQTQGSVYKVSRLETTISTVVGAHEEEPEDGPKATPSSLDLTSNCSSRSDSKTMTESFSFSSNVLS
T1 sequence (P25103 whole entry F264Y/M291F): as the sequence (P25103 whole entry M291F) above, with F264Y counted along it
T3 sequence (P25103 whole entry F264Y): as the sequence (P25103 whole entry M291F) above, with F264Y, F291M counted along it

Question: Which results are given for CSCC[C@H](NC(=O)[C@H](CC(C)C)NC(=O)CNC(=O)[C@@H](NC(=O)[C@H](Cc1ccccc1)NC(=O)[C@H](CO)NC(=O)[C@H](CC(=O)O)NC(=O)[C@@H](NC(=O)[C@H](CCCCN)NC(=O)[C@@H](N)Cc1c[nH]cn1)[C@@H](C)O)C(C)C)C(N)=O [NKA, neurokinin A]?
Answer: Emax (NK1R F264Y M291F [1]): 125%; Emax (NK1R M291F [2]): 99.9%; Emax (NK1R F264Y): 105 ± 6.3%; Emax (NK1R F264Y M291F [3]): 102 ± 11%; Emax (NK1R M291F [4]): 102 ± 12.7%
